The source made the active and inactive calls. Bounds are passed on as bounds.

Data on 7 compounds can be found in ChEMBL document CHEMBL1201862, “PubChem BioAssay data set” (2004).

Experiment [1] in a line: reduction of Shn3 3'UTR-driven luciferase in osteoblasts – cell-based, Clone20 osteoblasts, firefly luciferase, cherry-picked, dose response (AID 624132).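 Note: firefly luciferase luminescence from reporter carrying the Shn3 3'UTR in osteoblasts.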 It counts as functional.
Experiment [2] is described as follows: non-specific 3'UTR reporter inhibition in Clone20-Shn3RL – cell-based, Renilla luciferase, cherry-picked, counter-screen for Shn3 inhibitor project, dose response (AID 624133). It counts as functional.
Experiment [3] can be described thus: Shn3 3'UTR reporter signal decrease – cell-based, Clone20 osteoblasts, firefly luciferase, cherry-pick, set 2, Schnurri-3 inhibitor project, dose response (AID 720490).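 Note: actives lower the luminescence signal as inhibitors.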 The experiment is classed as functional.
Experiment [4] is described as follows: MIN6 cell viability loss – mouse insulinoma, cytotoxicity control, dose response (AID 2122).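 Note: confirmatory high-throughput counterscreen run to flag cytotoxic compounds.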 It counts as functional.
Experiment [5] can be described thus: decrease of insulin promoter-GFP reporter – imaging, high-content screening, mouse beta cells (AID 1628). It counts as functional. The note with it: MIN6.
The nature of experiment [6]: loss of viability in HepG2 cells – cell-based, CellTiter-Glo, cherry-picked, cytotoxicity control for Shn3 inhibitor project, dose response (AID 624134). It counts as functional.
Another experiment has as its system INS1. Kind of experiment: INS-1E survival protection against cytokine death – cell-based, luminescence, retest, dose response (AID 449756).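 Note: cell death triggered by IL-1 beta plus TNF-alpha plus IFN-gamma mixture; protective hits raise ATP signal compared with cytokine alone wells.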 The experiment is classed as functional. The conditions noted are these: Rattus norvegicus.
The target in experiment [7] is T1, Oxysterols receptor LXR-beta (Homo sapiens, UniProt P55055).
T1 sequence (P55055 whole entry): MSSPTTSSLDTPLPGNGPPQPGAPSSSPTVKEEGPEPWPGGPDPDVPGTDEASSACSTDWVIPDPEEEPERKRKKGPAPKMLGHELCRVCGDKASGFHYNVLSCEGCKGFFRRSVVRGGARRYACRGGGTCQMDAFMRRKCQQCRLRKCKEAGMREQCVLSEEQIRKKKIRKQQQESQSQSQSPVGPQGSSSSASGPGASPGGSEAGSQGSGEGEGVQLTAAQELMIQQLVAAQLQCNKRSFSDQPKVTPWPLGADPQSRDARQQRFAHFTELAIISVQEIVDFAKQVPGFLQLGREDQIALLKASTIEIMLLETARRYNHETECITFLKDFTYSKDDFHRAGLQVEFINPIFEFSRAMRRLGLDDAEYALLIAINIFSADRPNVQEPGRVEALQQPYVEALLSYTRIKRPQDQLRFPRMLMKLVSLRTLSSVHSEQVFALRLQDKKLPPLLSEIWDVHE
Kind of experiment: LXR agonists, Gal4 luciferase reporter, dose response, counter-screen for ssDAF-12 agonist project, cell-based, luminescence, HEK293, S. stercoralis campaign (AID 720737). It counts as functional. The conditions noted are these: read-out: IC50 (the source's name).

Experiment [8] can be described thus: Luminescence-based cell-based high throughput dose response assay to identify activators of the DAF-12 from the parasite S. stercoralis (ssDAF-12). It counts as functional.
The target in a further experiment is Caspase-8 (Homo sapiens, UniProt Q14790). Kind of experiment: inhibitors of purified CASP8 protease – biochemical, Z-IETD-R110 fluorescence, cherry-picked samples, selectivity assay for caspase-6 inhibitor project, dose response (AID 743294).
Caspase-8, sequence (Q14790 217-374 limits assumed): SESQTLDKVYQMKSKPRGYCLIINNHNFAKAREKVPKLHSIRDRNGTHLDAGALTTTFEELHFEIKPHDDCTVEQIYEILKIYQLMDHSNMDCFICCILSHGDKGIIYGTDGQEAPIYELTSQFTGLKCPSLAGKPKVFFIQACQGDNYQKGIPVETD
Caspase-8, sequence (Q14790 385-479 limits assumed): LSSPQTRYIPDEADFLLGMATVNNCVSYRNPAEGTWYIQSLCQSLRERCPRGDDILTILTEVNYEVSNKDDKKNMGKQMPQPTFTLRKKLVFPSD
In the next experiment the target is Caspase-9 (Homo sapiens, UniProt P55211). Kind of experiment: inhibitors of purified CASP9 protease – biochemical, fluorescence, plate reader, cherry-picked samples, selectivity assay for caspase-6 inhibitor project, dose response (AID 743293).
Caspase-9, sequence (P55211 1-315 limits assumed): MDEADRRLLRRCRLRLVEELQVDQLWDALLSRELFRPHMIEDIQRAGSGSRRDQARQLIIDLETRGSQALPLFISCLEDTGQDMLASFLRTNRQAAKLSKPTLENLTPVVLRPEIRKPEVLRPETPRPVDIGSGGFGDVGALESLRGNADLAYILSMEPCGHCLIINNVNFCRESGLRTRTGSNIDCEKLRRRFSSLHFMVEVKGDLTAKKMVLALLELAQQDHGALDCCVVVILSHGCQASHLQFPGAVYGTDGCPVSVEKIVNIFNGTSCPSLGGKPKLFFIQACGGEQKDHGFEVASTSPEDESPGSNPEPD
Caspase-9, sequence (P55211 331-416 limits assumed): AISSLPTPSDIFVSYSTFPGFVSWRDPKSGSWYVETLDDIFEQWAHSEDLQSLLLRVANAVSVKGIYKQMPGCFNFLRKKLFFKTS
For a further experiment, the target named is T2, Caspase-3 (Homo sapiens, UniProt P42574).
T2 sequence (P42574 whole entry): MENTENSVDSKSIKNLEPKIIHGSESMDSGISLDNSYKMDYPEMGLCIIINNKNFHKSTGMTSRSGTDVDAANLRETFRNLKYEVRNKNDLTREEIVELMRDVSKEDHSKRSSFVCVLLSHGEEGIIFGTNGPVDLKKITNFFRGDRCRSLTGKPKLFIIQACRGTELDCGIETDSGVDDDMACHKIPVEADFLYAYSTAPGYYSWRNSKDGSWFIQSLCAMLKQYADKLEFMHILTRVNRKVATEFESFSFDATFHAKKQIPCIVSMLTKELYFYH
In words: human caspase-3 protease activity blockade – biochemical, fluorescence, cherry-picked samples, selectivity assay for caspase-6 allosteric inhibitor project, dose response (AID 743291).

The next experiment addresses T3, Protein skinhead-1 (Caenorhabditis elegans, UniProt P34707).
T3 sequence (P34707 whole entry): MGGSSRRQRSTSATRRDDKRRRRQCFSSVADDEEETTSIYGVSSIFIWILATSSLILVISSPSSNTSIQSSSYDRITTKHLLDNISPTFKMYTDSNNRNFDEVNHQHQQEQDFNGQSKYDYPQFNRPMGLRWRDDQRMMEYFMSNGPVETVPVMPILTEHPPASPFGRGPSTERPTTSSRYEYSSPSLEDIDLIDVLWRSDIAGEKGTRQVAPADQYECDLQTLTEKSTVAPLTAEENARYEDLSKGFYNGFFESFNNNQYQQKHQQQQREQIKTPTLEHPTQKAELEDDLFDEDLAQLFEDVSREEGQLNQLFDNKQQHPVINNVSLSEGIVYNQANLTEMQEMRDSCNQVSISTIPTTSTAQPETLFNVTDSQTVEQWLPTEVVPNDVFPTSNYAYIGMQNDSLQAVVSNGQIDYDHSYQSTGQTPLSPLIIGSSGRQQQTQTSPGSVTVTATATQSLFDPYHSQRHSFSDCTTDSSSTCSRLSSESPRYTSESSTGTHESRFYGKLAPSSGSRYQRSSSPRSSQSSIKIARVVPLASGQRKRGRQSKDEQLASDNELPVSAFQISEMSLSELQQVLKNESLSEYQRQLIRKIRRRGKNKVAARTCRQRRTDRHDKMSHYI
It counts as functional.

In the next experiment the target is Caspase-7 (Homo sapiens, UniProt P55210). In words: caspase-7 enzyme inhibition, selectivity check – biochemical, DEVD-R110 fluorescence, cherry-pick, selectivity assay for caspase-6 inhibitor project, dose response (AID 743295). It counts as functional.
Caspase-7, sequence (P55210 24-198 limits assumed): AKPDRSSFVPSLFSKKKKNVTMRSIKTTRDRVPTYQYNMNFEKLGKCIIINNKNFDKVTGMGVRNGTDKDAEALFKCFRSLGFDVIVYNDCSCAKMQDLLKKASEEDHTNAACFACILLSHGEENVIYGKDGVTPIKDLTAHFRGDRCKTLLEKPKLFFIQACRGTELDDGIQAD
Caspase-7, sequence (P55210 207-303 limits assumed): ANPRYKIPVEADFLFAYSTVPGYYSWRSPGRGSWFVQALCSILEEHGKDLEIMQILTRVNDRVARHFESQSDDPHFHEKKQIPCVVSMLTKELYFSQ
A further experiment has as its target Caspase-6 (Homo sapiens, UniProt P55212). Kind of experiment: inhibition of CASP6 peptide cleavage – biochemical, VEID-R110 fluorescence, cherry-pick, dose response (AID 720632).
In experiment [9] the target is Tyrosyl-DNA phosphodiesterase 2 (Homo sapiens, UniProt O95551). In words: potency against TDP2 phosphodiesterase activity – biochemical, epi absorbance, IC50, dose response (AID 743297).
Tyrosyl-DNA phosphodiesterase 2, sequence (O95551 whole entry, the tested form may be a part): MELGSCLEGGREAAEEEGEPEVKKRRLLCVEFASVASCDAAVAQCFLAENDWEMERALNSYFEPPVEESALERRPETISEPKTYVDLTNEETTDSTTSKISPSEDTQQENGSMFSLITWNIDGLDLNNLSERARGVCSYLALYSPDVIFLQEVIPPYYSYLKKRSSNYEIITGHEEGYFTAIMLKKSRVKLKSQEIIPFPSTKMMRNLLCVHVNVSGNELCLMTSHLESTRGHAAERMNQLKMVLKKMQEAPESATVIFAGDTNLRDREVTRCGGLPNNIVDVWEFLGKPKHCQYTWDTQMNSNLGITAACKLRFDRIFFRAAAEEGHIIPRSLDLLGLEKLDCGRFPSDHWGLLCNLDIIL
Experiment [10] has as its target T4, Polyadenylate-binding protein 1 (Homo sapiens, UniProt P11940). In words: MLLE domain peptide-binding blockers, IC50 – biochemical, fluorescence polarization, FITC-PAM2 peptide, dose response (AID 602259). The conditions noted are these: read-out: IC50_Mean. It counts as functional. (In fluorescence polarisation assays a small probe gives low polarisation when free and higher when bound to something large.)

For experiment [11], the target named is T4, Polyadenylate-binding protein 1. Kind of experiment: MLLE binding blockers, Cy5 peptide tracer – biochemical, fluorescence polarization, Cy5-PAM2 peptide, secondary, miRNA deadenylation inhibitor project, dose response (AID 602260). The note with it: read-out: IC50_Mean. It counts as functional.
The target of experiment [12] is T5, Ubiquitin-conjugating enzyme E2 N (Homo sapiens, UniProt P61088).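 Note: Dose-response confirmation in a TR-FRET assay detecting UBC13-driven polyubiquitin chain formation, inhibition measured.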
T5 sequence (P61088 whole entry): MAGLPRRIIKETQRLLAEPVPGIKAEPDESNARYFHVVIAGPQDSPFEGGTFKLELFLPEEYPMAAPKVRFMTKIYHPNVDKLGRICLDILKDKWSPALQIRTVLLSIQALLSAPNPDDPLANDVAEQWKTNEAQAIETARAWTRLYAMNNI
The experiment is classed as functional.

Experiment [13] is described as follows: HGIII-sPLA2 enzyme inhibition potency – biochemical, QFRET, IC50, dose response (AID 743457).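 Note: green fluorescence rise as the enzyme cleaves BODIPY PC-A2 in liposomes.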
The target of experiment [14] is Intestinal-type alkaline phosphatase (Homo sapiens, UniProt P09923). Kind of experiment: human intestinal alkaline phosphatase activators, dose response, biochemical, luminescence, uHTS hits (AID 463120). The experiment is classed as functional.
Intestinal-type alkaline phosphatase, sequence (P09923 whole entry): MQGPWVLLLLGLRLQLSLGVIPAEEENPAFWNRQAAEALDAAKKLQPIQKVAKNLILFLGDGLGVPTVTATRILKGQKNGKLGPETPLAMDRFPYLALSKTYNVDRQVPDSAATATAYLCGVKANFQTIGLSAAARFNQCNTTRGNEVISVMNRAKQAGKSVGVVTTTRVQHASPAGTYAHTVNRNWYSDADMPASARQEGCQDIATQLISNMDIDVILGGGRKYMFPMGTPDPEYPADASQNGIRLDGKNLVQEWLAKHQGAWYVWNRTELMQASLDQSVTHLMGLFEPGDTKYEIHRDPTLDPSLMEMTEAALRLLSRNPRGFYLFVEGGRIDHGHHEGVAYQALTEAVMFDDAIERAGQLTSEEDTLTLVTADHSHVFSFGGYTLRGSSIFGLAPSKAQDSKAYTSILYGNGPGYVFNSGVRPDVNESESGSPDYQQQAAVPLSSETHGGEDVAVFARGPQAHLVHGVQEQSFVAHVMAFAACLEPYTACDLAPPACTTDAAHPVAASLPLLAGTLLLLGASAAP
Experiment [15] is described as follows: antimalarial activity against Dd2 parasites – SYBR Green fluorescence, erythrocytes, dry powder, set 2, dose response (AID 1159574). It counts as functional, cell-based.
Experiment [16] is described as follows: viability loss in MITF-independent A375 cells – cell-based, CellTiter-Glo luminescence, dry powder, set 2, counter-screen for MITF inhibitor project, dose response (AID 624489).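 Note: actives are compounds lowering A375 viability meaning general cytotoxicity.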 The experiment is classed as functional. The conditions noted are these: A-375. Background: In ATP-based viability assays light output follows the ATP content of the culture.
Experiment [17] in a line: cytotoxicity in MITF-independent A375 cells – cell-based, CellTiter-Glo luminescence, dry powder, set 4, counter-screen for MITF inhibitor project, dose response (AID 624364).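 Note: A375 melanoma cells are MITF independent so this is a counter screen.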 It counts as functional. The conditions noted are these: A-375.
Experiment [18] is described as follows: reduced cellular PGC1a acetyl-lysine signal – cell-based, cherry-picked samples, dose response (AID 720514).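 Note: potency may reflect raised or lowered acetylation signal.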 It counts as functional.
In another experiment the target is Paired box protein Pax-8 (Homo sapiens, UniProt Q06710). In words: PAX8 transcriptional activity inhibition in RMG-I – RMG-I cells, luciferase, cherry-pick, dose response (AID 687027).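 Note: luciferase reporter driven by Pax8 target thyroperoxidase promoter measured by SteadyGlo luminescence.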 It counts as functional, cell-based.
Paired box protein Pax-8, sequence (Q06710 whole entry): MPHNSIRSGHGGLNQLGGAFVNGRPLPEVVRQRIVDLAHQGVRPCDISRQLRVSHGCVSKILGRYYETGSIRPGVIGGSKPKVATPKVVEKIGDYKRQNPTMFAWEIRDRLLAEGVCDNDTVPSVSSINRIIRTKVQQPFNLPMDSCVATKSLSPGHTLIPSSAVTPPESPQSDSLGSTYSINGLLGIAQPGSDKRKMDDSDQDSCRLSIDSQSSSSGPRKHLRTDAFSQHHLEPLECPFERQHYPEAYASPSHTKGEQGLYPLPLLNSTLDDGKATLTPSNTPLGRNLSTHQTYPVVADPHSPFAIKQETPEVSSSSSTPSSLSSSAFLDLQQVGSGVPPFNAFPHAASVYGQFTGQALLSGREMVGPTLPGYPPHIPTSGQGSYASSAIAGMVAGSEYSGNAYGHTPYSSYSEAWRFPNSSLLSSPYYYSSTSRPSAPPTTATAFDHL
Experiment [19] is described as follows: toxicity to human hepatoma HepG2 cells – cell-based, cherry-picked samples, cytotoxicity control, dose response (AID 1159577). The experiment is classed as functional.
Experiment [20] can be described thus: P. falciparum Dd2 growth inhibitors, dose response, SYBR Green, cherry-picked samples (AID 1159567). It counts as functional, cell-based.
The nature of experiment [21]: general cell-killing toxicity readout – plate reader, dry powder samples, cytotoxicity control for PAX8 inhibitor project, dose response (AID 743021). It counts as functional, cell-based.
Experiment [22] is described as follows: IGROV1 cell killing – plate reader, dry powder samples, PAX8 inhibitor project, dose response (AID 743043). The experiment is classed as functional, cell-based. The conditions noted are these: IGROV-1.
Experiment [23] can be described thus: OVCAR8 cell viability loss – plate reader, dry powder samples, PAX8 project, dose response (AID 743197). The conditions noted are these: OVCAR-8. It counts as functional, cell-based.

T4 sequence (P11940 whole entry, the tested form may be a part): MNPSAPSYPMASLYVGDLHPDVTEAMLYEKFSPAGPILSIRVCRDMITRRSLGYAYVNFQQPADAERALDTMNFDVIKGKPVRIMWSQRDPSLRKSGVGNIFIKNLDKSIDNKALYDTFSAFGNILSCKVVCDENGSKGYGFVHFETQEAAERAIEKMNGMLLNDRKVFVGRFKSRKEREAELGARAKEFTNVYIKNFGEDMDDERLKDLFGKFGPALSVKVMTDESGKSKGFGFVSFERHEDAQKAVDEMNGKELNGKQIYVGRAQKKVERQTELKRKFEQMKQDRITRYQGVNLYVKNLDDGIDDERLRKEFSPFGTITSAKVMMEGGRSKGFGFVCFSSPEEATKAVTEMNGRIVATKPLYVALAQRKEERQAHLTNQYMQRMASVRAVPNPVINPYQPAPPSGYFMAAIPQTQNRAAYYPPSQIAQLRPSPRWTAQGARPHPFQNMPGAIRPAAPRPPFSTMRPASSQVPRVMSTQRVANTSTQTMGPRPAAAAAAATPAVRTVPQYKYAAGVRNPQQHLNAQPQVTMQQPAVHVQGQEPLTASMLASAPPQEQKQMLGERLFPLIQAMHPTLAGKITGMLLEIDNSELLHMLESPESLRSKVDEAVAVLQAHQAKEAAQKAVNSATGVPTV
Caspase-6, sequence (P55212 24-179 limits assumed): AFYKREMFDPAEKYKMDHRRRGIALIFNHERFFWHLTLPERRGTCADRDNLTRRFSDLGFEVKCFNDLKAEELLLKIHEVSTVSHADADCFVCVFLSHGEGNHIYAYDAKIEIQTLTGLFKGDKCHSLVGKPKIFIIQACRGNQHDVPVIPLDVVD
Caspase-6, sequence (P55212 194-293 limits assumed): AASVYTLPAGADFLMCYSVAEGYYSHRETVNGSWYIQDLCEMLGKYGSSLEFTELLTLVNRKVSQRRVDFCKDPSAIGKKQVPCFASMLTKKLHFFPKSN

With `Oc1ccc(-c2[nH]nc(C(F)(F)F)c2-c2ccccc2)c(O)c1`, the AC50 was 0.283 µM (active) in experiment [1]; 2.63 µM (active) in experiment [2]; 0.473 µM (active) in experiment [3]; 53.2 µM (active) in [6]; 3.81 µM (active) in the experiment on INS1. Also, the IC50 is 0.547 µM (active) in experiment [4] and 0.666 µM (active) in experiment [5].
On to `O=C(Nc1cccc(O)c1)c1c(O)nc2ccccc2c1O`, for which the EC50 in experiment [7] was > 67.5 µM (inactive). Besides, the IC50 in experiment [8] was > 67.5 µM (inactive).
`Cn1c(=O)c2c(-c3ccccc3)n(-c3ccc(N)cc3)cc2n(C)c1=O`: the AC50 on Caspase-8 was > 70 µM (inactive); on Caspase-9, 69.8 µM (active); on Caspase-3, 19.2 µM (active); at Caspase-7, 8.62 µM (active); at Caspase-6, 1.07 µM (active). Further, the IC50 was 73.6 µM (inactive) on Protein skinhead-1, > 128 µM (inactive) in experiment [9], 38.4 µM (inactive) in [10] and > 66 µM (inactive) in [11].
For `COc1ccc(NC(S)=NNC(=O)c2nnn(-c3ccccc3)c2C)cc1`, the IC50 in experiment [12] is > 20 µM (inactive); in experiment [13], > 122 µM (inactive). The EC50 in [14] is 14.2 µM (active).
Consider `COc1ccc(S(=O)(=O)N(C)C[C@H]2OCc3ccccc3-c3c(n(C)c4ccccc34)C(=O)N([C@@H](C)CO)C[C@H]2C)cc1`, for which the AC50 in experiment [15] was 5.13 µM (active).
`O=C1C(NS(=O)(=O)c2ccccc2)=C(N2CCOCC2)C(=O)c2ccccc21`: the AC50 in experiment [16] and in experiment [17] was > 70 µM (inactive) in each case.
Regarding `COc1ccc(-c2ccc([C@@H]3[C@@H]4CN(Cc5cc(OC)cc(OC)c5)C[C@H]3N4)cc2)cc1`, the AC50 in [18] is 10.5 µM (active); on Paired box protein Pax-8, 10.1 µM (active); in experiment [19], 6.38 µM (active); in [20], 2.24 µM (active); in experiment [21] it was 11.8 µM (active); in [22], 21.5 µM (active). Besides, the AC50 in experiment [23] was 23.8 µM (active).

The term AC50 denotes the concentration at which the activity in the assay is half-maximal.
